Test results reported in patent US7935688B2, “Vitamin D-like compound” (Chugai Seiyaku Kabushiki Kaisha, priority 2005, dated 2011).

How the values were obtained:
[1] = test system: osteocalcin production in MG-63 cells; experiment: Osteocalcin production in MG-63 cells (Gla-type Osteocalcin EIA); assay type: cell-based, human; conditions: (EC50 value of 1,25(OH)2D3/EC50 value of each compound)×100; eight hours exposure, then four days culture
Description: mg-63 was obtained from Institute for Fermentation, Osaka as a human osteoblast-like cell line. MG-63 cells were maintained and cultured in a MEM medium (Minimum essential medium; pH 7.0; Invitrogen Corporation, Carlsbad, Calif., USA) containing 5% fetal bovine serum (FBS; HyClone, Logan, Utah, USA).
MG-63 cells were adjusted to a density of 4.0×10^4 cells/mL, plated in a 96-well plate at 200 μL per well, and cultured under conditions of 37° C. and 5% carbon dioxide for 24 hours.
After removing the medium, MEM containing 5% charcoal/dextran treated FBS (DCC-FBS; Hyclone, Logan, Utah, USA) was added at 180 μL/well. The test substance (1.0×10^−3 mol/L) was diluted with dimethyl sulfoxide (DMSO) to 1.0×10^−4 mol/L, 1.0×10^−5 mol/L, 1.0×10^−6 mol/L, 1.0×10^−7 mol/L and 1.0×10^−8 mol/L. 1,25(OH)2D3 was used as a positive control. Like the test substance, 1,25(OH)2D3 was diluted with DMSO. 0.02 mL of the positive control and the test substance diluted 100-fold with MEM containing 5% DCC-FCS was added to each well of the 96-well plate, so that the final drug concentration was 1.0×10^−6 mol/L to 1.0×10^−11 mol/L. Thereafter, the cells were cultured under conditions of 37° C. and 5% carbon dioxide for eight hours.
After culturing for eight hours, the medium was removed, and MEM containing 5% DCC-FBS was added at 0.2 mL per well. The cells were cultured under conditions of 37° C. and 5% carbon dioxide for four days, and the medium was recovered. The medium was stored at −80° C. until osteocalcin measurement.
The Gla-type Osteocalcin EIA kit (Takara Bio Inc., Tokyo, Japan) was used for measurement of osteocalcin. Measurement was carried out using a microplate reader (Model 3550, Bio-Rad Laboratories, Inc., Hercules, Calif., USA) at a wavelength of 450 nm, and the results were analyzed by Microplate Manager III (Bio-Rad Laboratories, Inc., ver. 1.57).
The median effective concentration (EC50) was calculated from the osteocalcin concentration. Potency of induction of each compound was calculated as a ratio of EC50 of 1,25(OH)2D3 to EC50 of the compound. The relation between diseases and induction of osteocalcin production is described in Lancet (1984 May 19), 1 (8386), 1091-3; Steroids 66, 159-170 (2001); and Journal of Steroid Biochemistry & Molecular Biology 89-90, 269-271 (2004), for example.
The osteocalcin production level in MG-63 cells (%) was calculated by the formula: (EC50 value of 1,25(OH)2D3/EC50 value of each compound)×100.

[2] = test system: Sprague-Dawley female rats subjected to ovariectomy (OVX); experiment: Effect of increasing bone density in ovariectomized rats (dual X-ray bone densitometry); assay type: in vivo, rat; conditions: forcibly orally, five times per week, pathological control group (vehicle) = 100%
Description: The compound of the present invention was adjusted to each concentration using middle chain triglyceride (MCT) as a base. The adjusted solution was stored under shading at 4° C. until use.
Seven-week-old Sprague-Dawley (Crj:CD(SD)) female rats (Charles River Laboratories Japan, Inc.) were preliminarily bred for one week in an environment at a room temperature of 20 to 26° C., at a humidity of 35 to 75% and with an air change of 10 times or more per hour. The rats were allowed to freely take tap water and CE-2 (CLEA Japan, Inc.) as a feed.
After preliminary breeding, the animals were subjected to ovariectomy (OVX) and divided into groups (eight animals per group) on the day after the operation. Only MCT as a base was forcibly orally administered to the sham operation group (sham) and the pathological control group (OVX-vehicle) at a dose of 1 mL/kg (five times per week). The compound of the present invention was also forcibly orally administered at the same dose five times per week.
The animals were bred in a metabolic cage and urine was collected for 24 hours after the final administration. Blood was collected from the abdominal aorta under ether anesthesia for 24 hours after the final administration. The blood was allowed to stand at room temperature for 30 minutes and then centrifuged to provide serum. The femur and lumbar spine were collected and stored in 70% ethanol until bone density measurement.
The bone density of the femur and the second to fifth lumbar spines of the isolated lumbar spines was measured by the dual X-ray bone densitometry system DCS-600-EX (ALOKA). The distal femur bone density was measured for three […] regions out of 10 regions of the femur equally divided in length. The bone density in each site was described based on the bone density of the pathological control group (vehicle group) in each experiment as 100%.
The effects of the compounds of the present invention on the lumbar spine bone density are shown in Table 2 as an example of the obtained results.

CCC(CC)(c1ccc(/C=C/C(O)(C(F)(F)F)C(F)(F)F)c(C)c1)c1ccc(-c2cccc(CC(=O)O)c2)c(C)c1 [Example 71, (4′-{1-ethyl-1-[3-methyl-4-((E)-4,4,4-trifluoro-3-hydroxy-3-trifluoromethyl-1-butenyl)-phenyl]-propyl}-2′-methyl-biphenyl-3-yl)-acetic Acid]
Osteocalcin production level in MG-63 cells (%) [1]: 746% | Lumbar spine bone density (%) ([2]; 0.025 μg/kg): 110.58% | Lumbar spine bone density (%) ([2]; 0.05 μg/kg): 115.09%

CCC(CC)(c1ccc(/C=C/C(O)(C(F)(F)F)C(F)(F)F)c(C)c1)c1ccc(-c2nc(CC(=O)O)cs2)c(C)c1 [Example 76, [2-(4-{1-ethyl-1-[3-methyl-4-((E)-4,4,4-trifluoro-3-hydroxy-3-trifluoromethyl-1-butenyl)-phenyl]-propyl}-2-methyl-phenyl)-thiazol-4-yl]-acetic Acid]
Osteocalcin production level in MG-63 cells (%) [1]: 407% | Lumbar spine bone density (%) ([2]; 0.015 μg/kg): 110.22% | Lumbar spine bone density (%) ([2]; 0.03 μg/kg): 111.00%

CCC(CC)(c1ccc(C#CC(O)(C(F)(F)F)C(F)(F)F)c(C)c1)c1ccc(-c2cncc(CC(=O)O)c2)c(C)c1 [Example 80, [5-(4-{1-ethyl-1-[3-methyl-4-(4,4,4-trifluoro-3-hydroxy-3-trifluoromethyl-1-butynyl)-phenyl]-propyl}-2-methyl-phenyl)-pyridin-3-yl]-acetic Acid]
Lumbar spine bone density (%) ([2]; 0.05 μg/kg): 110.75% | Lumbar spine bone density (%) ([2]; 0.1 μg/kg): 116.68%

CCC(O)(/C=C/c1ccc(C(CC)(CC)c2ccc(-c3ccc(CC(=O)O)cn3)c(C)c2)cc1C)CC [Example 81, [6-(4-{1-ethyl-1-[4-((E)-3-ethyl-3-hydroxy-1-pentenyl)-3-methyl-phenyl]-propyl}-2-methyl-phenyl)-pyridin-3-yl]-acetic Acid]
Osteocalcin production level in MG-63 cells (%) [1]: 652% | Lumbar spine bone density (%) ([2]; 0.01 μg/kg): 115.66% | Lumbar spine bone density (%) ([2]; 0.02 μg/kg): 115.66%

CCC(CC)(c1ccc(/C=C/C2(O)CCCCC2)c(C)c1)c1ccc(-c2cc(Cl)ccc2CC(=O)O)c(C)c1 [Example 89, [5-chloro-4′-(1-ethyl-1-{4-[(E)-2-(1-hydroxy-cyclohexyl)-vinyl]-3-methyl-phenyl}-propyl)-2′-methyl-biphenyl-2-yl]-acetic Acid]
Lumbar spine bone density (%) ([2]; 1.25 μg/kg): 109.24% | Lumbar spine bone density (%) ([2]; 2.5 μg/kg): 121.37%

CCC(CC)(c1ccc(/C=C/C2(O)CCCCC2)c(C)c1)c1ccc(-c2ccc(CC(=O)O)c(Cl)c2)c(C)c1 [Example 90, [3-chloro-4′-(1-ethyl-1-{4-[(E)-2-(1-hydroxy-cyclohexyl)-vinyl]-3-methyl-phenyl}-propyl)-2′-methyl-biphenyl-4-yl]-acetic Acid]
Osteocalcin production level in MG-63 cells (%) [1]: 1604%

CCC(CC)(c1ccc(/C=C/C2(O)CCCCC2)c(C)c1)c1ccc(-c2ccc(CC(=O)O)cn2)c(C)c1 [Example 91, {6-[4-(1-ethyl-1-{4-[(E)-2-(1-hydroxy-cyclohexyl)-vinyl]-3-methyl-phenyl}-propyl)-2-methyl-phenyl]-pyridin-3-yl}-acetic Acid]
Osteocalcin production level in MG-63 cells (%) [1]: 1074%

CCC(CC)(c1ccc(C#CC2(O)CCCC2)c(C)c1)c1ccc(-c2ccc(CC(=O)O)c(F)c2)c(C)c1 [Example 93, (4′-{1-ethyl-1-[4-(1-hydroxy-cyclopentylethynyl)-3-methyl-phenyl]-propyl}-3-fluoro-2′-methyl-biphenyl-4-yl)-acetic Acid]
Osteocalcin production level in MG-63 cells (%) [1]: 487%

CCC(CC)(c1ccc(C#CC2(O)CCCCC2)c(C)c1)c1ccc(-c2ccc(CC(=O)O)c(F)c2)c(C)c1 [Example 97, (4′-{1-ethyl-1-[4-(1-hydroxy-cyclohexylethynyl)-3-methyl-phenyl]-propyl}-3-fluoro-2′-methyl-biphenyl-4-yl)-acetic Acid]
Osteocalcin production level in MG-63 cells (%) [1]: 533%

CCC(CC)(c1ccc(OCC(O)C(C)(C)C)c(C)c1)c1ccc(-c2ccc(CC(=O)O)c(F)c2)c(C)c1 (stereo not drawn) [Example 100, (4′-{1-ethyl-1-[4-(2-hydroxy-3,3-dimethyl-butoxy)-3-methyl-phenyl]-propyl}-3-fluoro-2′-methyl-biphenyl-4-yl)-acetic Acid]
Osteocalcin production level in MG-63 cells (%) [1]: 878%

CCC(CC)(c1ccc(OCC(O)C(C)(C)C)c(C)c1)c1ccc(-c2ccc(CC(=O)O)cn2)c(C)c1 (stereo not drawn) [Example 101, [6-(4-{1-ethyl-1-[4-(2-hydroxy-3,3-dimethyl-butoxy)-3-methyl-phenyl]-propyl}-2-methyl-phenyl)-pyridin-3-yl]-acetic Acid]
Osteocalcin production level in MG-63 cells (%) [1]: 508%

CCC(CC)(c1ccc(-c2cncc(CC(=O)O)c2)cc1)c1ccc(OCC(O)C(C)(C)C)c(C)c1 (stereo not drawn) [Example 146, [5-(4-{1-ethyl-1-[4-(2-hydroxy-3,3-dimethyl-butoxy)-3-methyl-phenyl]-propyl}-phenyl)-pyridin-3-yl]-acetic Acid]
Osteocalcin production level in MG-63 cells (%) [1]: 3721%

CCC(CC)(c1ccc(-c2cncc(CC(=O)O)c2)cc1)c1ccc(C#CC2(O)CCCCC2)c(C)c1 [Example 147, [5-(4-{1-ethyl-1-[4-(1-hydroxy-cyclohexylethynyl)-3-methyl-phenyl]-propyl}-phenyl)-pyridin-3-yl]-acetic Acid]
Osteocalcin production level in MG-63 cells (%) [1]: 1228%

CCC(CC)(c1ccc(-c2cncc(CC(=O)O)c2)cc1)c1ccc(C#CC2(O)CCCC2)c(C)c1 [Example 148, [5-(4-{1-ethyl-1-[4-(1-hydroxy-cyclopentylethynyl)-3-methyl-phenyl]-propyl}-phenyl)-pyridin-3-yl]-acetic Acid]
Osteocalcin production level in MG-63 cells (%) [1]: 1022%

CCC(CC)(c1ccc(-c2cncc(CC(=O)O)c2)cc1)c1ccc(CCC2(O)CCCCC2)c(C)c1 [Example 149, {5-[4-(1-ethyl-1-{4-[2-(1-hydroxy-cyclohexyl)-ethyl]-3-methyl-phenyl}-propyl)-phenyl]-pyridin-3-yl}-acetic Acid]
Osteocalcin production level in MG-63 cells (%) [1]: 1305% | Lumbar spine bone density (%) ([2]; 0.075 μg/kg): 111.40% | Lumbar spine bone density (%) ([2]; 0.15 μg/kg): 116.00%

CCC(CC)(c1ccc(-c2cncc(CC(=O)O)c2)cc1)c1ccc(CCC2(O)CCCC2)c(C)c1 [Example 150, {5-[4-(1-ethyl-1-{4-[2-(1-hydroxy-cyclopentyl)-ethyl]-3-methyl-phenyl}-propyl)-phenyl]-pyridin-3-yl}-acetic Acid]
Osteocalcin production level in MG-63 cells (%) [1]: 645%

CCC(CC)(c1ccc(OCC(O)CO)c(C)c1)c1ccc(OCC(O)C(C)(C)C)c(C)c1 (stereo not drawn) [LG190178, reference compound]
Osteocalcin production level in MG-63 cells (%) [1]: 185%
